Data: article PMC6409085, “Three odorant-binding proteins are involved in the behavioral response of Sogatella furcifera to rice plant volatiles” (PeerJ, 2019)
“And” between values parts separate entries of the source, which are not always exact repeats. Equal values may be shown once.

Tests used:
Test in all cases: biochemical
Type in all cases: binding
SfurOBP11 = SfurOBP11 (Sogatella furcifera, UniProt V5T6E3)
Protocol: (§1) Thirty-six rice odorants ([He et al., 2014]; [Wang et al., 2017]) and 1-N-phenyl-naphthylamine (1-NPN) were purchased from Sigma-Aldrich (St Louis, MO, USA). These odorants and 1-NPN were dissolved in high-performance liquid chromatography (HPLC) purify grade methanol for 1.0 mM as work solution.
(§2) Fluorescence competitive binding assays were performed on Tecan Spark 10M (Tecan Group Ltd., Männedorf, Switzerland) with the F96 Black ELIAS Plate (Sangon) ([Khuhro et al., 2017]; [Liu et al., 2017]). The solutions were excited at 337 nm and emission spectra were recorded between 390 and 490 nm. First, to test the binding constants of 1-NPN to the SfurOBPs, a 2.0 µM solution of protein in 50 mM Tris-HCl (pH = 7.4) was titrated with 1 mM 1-NPN to achieve virous concentrations. Next, the competitive binding of each odorant was measured using the 1-NPN as fluorescent reporter and odorant as competitor. The concentrations of protein and 1-NPN were both 2.0 µM, the odorant added after protein and 1-NPN added into the well of ELIAS Plate for 2 min. The final concentrations of each competitor were 2, 4, 6, 8, 10, 12, 14, 16, 18 and 20 µM. After 2 min of odorant added, the fluorescence intensity was measured and recorded. The volume of mixed solution in each well was maintained at 250 µL. Each interaction was performed in triplicates.
(§3) GraphPad Prism 7.0 software (GraphPad Software, Inc., La Jolla, CA, USA) was used to calculated and generated the binding constants (K1−NPN) of 1-NPN to SfurOBPs and relative Scatchard plots ([Ban et al., 2003]; [Li et al., 2016]). Dissociation constant (Ki) of each odorant to SfurOBP was computed from the corresponding IC50 value (the half maximal inhibitory concentration), using the following equation: Ki=[IC50]/(1 + [1-NPN]/K1−NPN), where [1-NPN] is the free concentration of 1-NPN and K1−NPN is the dissociation constant of the complex protein/1-NPN.

SfurOBP3 = SfurOBP3 (Sogatella furcifera, UniProt V5T818); settings: OBP3, three replicate columns
SfurOBP3, sequence (V5T818 entry or part of it): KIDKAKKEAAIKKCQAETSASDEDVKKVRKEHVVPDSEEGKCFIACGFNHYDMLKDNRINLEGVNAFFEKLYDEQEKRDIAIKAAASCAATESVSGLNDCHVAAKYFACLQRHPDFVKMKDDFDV
Protocol: as §1, §2, §3

SfurOBP2 = SfurOBP2 (Sogatella furcifera, UniProt V5T759)
SfurOBP2, sequence (V5T759 entry or part of it): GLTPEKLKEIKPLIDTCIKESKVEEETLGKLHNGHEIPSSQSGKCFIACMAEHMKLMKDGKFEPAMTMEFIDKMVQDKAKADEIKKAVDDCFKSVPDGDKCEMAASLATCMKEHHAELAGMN
Protocol: as §1, §2, §3

SfurOBP1 = SfurOBP1 (Sogatella furcifera, UniProt V5T8N5); settings: OBP1, three replicate columns
SfurOBP1, sequence (V5T8N5 entry or part of it): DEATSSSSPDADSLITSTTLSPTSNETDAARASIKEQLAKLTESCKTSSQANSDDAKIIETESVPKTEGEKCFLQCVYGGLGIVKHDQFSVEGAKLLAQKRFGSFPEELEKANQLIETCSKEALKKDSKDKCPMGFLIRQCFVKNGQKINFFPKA
Protocol: as §1, §2, §3

SfurOBP11, sequence (V5T6E3 entry or part of it): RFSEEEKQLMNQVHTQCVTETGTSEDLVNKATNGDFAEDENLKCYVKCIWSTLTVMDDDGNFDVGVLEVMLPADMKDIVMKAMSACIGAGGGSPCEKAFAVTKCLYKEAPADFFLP

Structure (SMILES): Cc1cc(C(C)(C)C)c(O)c(C(C)(C)C)c1 [BHT(2,6-di-tert-butyl-4-methylphenol)]
- Fluorescence intensity, fluorescence competitive binding assay, OBP11 (SfurOBP11; ligand concentration 2, replicate 1): 23825
- Fluorescence intensity, fluorescence competitive binding assay, OBP11 (SfurOBP11; ligand concentration 2, replicate 2): 22642
- Fluorescence intensity, fluorescence competitive binding assay, OBP11 (SfurOBP11; ligand concentration 2, replicate 3): 21527
- Fluorescence intensity, fluorescence competitive binding assay, OBP11 (SfurOBP11; ligand concentration 4, replicate 1): 20143
- Fluorescence intensity, fluorescence competitive binding assay, OBP11 (SfurOBP11; ligand concentration 4, replicate 2): 21258
- Fluorescence intensity, fluorescence competitive binding assay, OBP11 (SfurOBP11; ligand concentration 4, replicate 3): 22100
- Fluorescence intensity, fluorescence competitive binding assay, OBP11 (SfurOBP11; ligand concentration 6, replicate 1): 20464
- Fluorescence intensity, fluorescence competitive binding assay, OBP11 (SfurOBP11; ligand concentration 6, replicate 2): 20607
- Fluorescence intensity, fluorescence competitive binding assay, OBP11 (SfurOBP11; ligand concentration 6, replicate 3): 21862
- Fluorescence intensity, fluorescence competitive binding assay, OBP11 (SfurOBP11; ligand concentration 8, replicate 1): 19852
- Fluorescence intensity, fluorescence competitive binding assay, OBP11 (SfurOBP11; ligand concentration 8, replicate 2): 19956
- Fluorescence intensity, fluorescence competitive binding assay, OBP11 (SfurOBP11; ligand concentration 8, replicate 3): 20060
- Fluorescence intensity, fluorescence competitive binding assay, OBP11 (SfurOBP11; ligand concentration 10, replicate 1): 19539
- Fluorescence intensity, fluorescence competitive binding assay, OBP11 (SfurOBP11; ligand concentration 10, replicate 2): 18542
- Fluorescence intensity, fluorescence competitive binding assay, OBP11 (SfurOBP11; ligand concentration 10, replicate 3): 20536
- Fluorescence intensity, fluorescence competitive binding assay, OBP11 (SfurOBP11; ligand concentration 12, replicate 1): 18948
- Fluorescence intensity, fluorescence competitive binding assay, OBP11 (SfurOBP11; ligand concentration 12, replicate 2): 19227
- Fluorescence intensity, fluorescence competitive binding assay, OBP11 (SfurOBP11; ligand concentration 12, replicate 3): 18669
- Fluorescence intensity, fluorescence competitive binding assay, OBP11 (SfurOBP11; ligand concentration 14, replicate 1): 16147
- Fluorescence intensity, fluorescence competitive binding assay, OBP11 (SfurOBP11; ligand concentration 14, replicate 2): 16112
- Fluorescence intensity, fluorescence competitive binding assay, OBP11 (SfurOBP11; ligand concentration 14, replicate 3): 15881
- Fluorescence intensity, fluorescence competitive binding assay, OBP11 (SfurOBP11; ligand concentration 16, replicate 1): 16019
- Fluorescence intensity, fluorescence competitive binding assay, OBP11 (SfurOBP11; ligand concentration 16, replicate 2): 15985
- Fluorescence intensity, fluorescence competitive binding assay, OBP11 (SfurOBP11; ligand concentration 16, replicate 3): 16022
- Fluorescence intensity, fluorescence competitive binding assay, OBP11 (SfurOBP11; ligand concentration 18, replicate 1): 16028
- Fluorescence intensity, fluorescence competitive binding assay, OBP11 (SfurOBP11; ligand concentration 18, replicate 2): 15902
- Fluorescence intensity, fluorescence competitive binding assay, OBP11 (SfurOBP11; ligand concentration 18, replicate 3): 15995
- Fluorescence intensity, fluorescence competitive binding assay, OBP11 (SfurOBP11; ligand concentration 20, replicate 1): 15978
- Fluorescence intensity, fluorescence competitive binding assay, OBP11 (SfurOBP11; ligand concentration 20, replicate 2): 15860
- Fluorescence intensity, fluorescence competitive binding assay, OBP11 (SfurOBP11; ligand concentration 20, replicate 3): 15984
- Fluorescence competitive binding assay, fluorescence intensity (SfurOBP3; ligand concentration 2): 62922 and 62019 and 61313
- Fluorescence competitive binding assay, fluorescence intensity (SfurOBP3; ligand concentration 4): 80496 and 109930 and 48944
- Fluorescence competitive binding assay, fluorescence intensity (SfurOBP3; ligand concentration 6): 58503 and 58107 and 50633
- Fluorescence competitive binding assay, fluorescence intensity (SfurOBP3; ligand concentration 8): 41822 and 72799 and 53759
- Fluorescence competitive binding assay, fluorescence intensity (SfurOBP3; ligand concentration 10): 69788 and 72654 and 85946
- Fluorescence competitive binding assay, fluorescence intensity (SfurOBP3; ligand concentration 12): 60000 and 90914 and 74114
- Fluorescence competitive binding assay, fluorescence intensity (SfurOBP3; ligand concentration 14): 74285 and 75475 and 71382
- Fluorescence competitive binding assay, fluorescence intensity (SfurOBP3; ligand concentration 16): 52587 and 87313 and 65294
- Fluorescence competitive binding assay, fluorescence intensity (SfurOBP3; ligand concentration 18): 52719 and 70169 and 103842
- Fluorescence competitive binding assay, fluorescence intensity (SfurOBP3; ligand concentration 20): 122349 and 93664 and 80933
- Fluorescence competitive binding assay, OBP2 (raw fluorescence reading) (SfurOBP2; ligand concentration 2 (unit not given), replicate column 1 of 3): 17266
- Fluorescence competitive binding assay, OBP2 (raw fluorescence reading) (SfurOBP2; ligand concentration 2 (unit not given), replicate column 2 of 3): 17491
- Fluorescence competitive binding assay, OBP2 (raw fluorescence reading) (SfurOBP2; ligand concentration 2 (unit not given), replicate column 3 of 3): 17183
- Fluorescence competitive binding assay, OBP2 (raw fluorescence reading) (SfurOBP2; ligand concentration 4 (unit not given), replicate column 1 of 3): 14970
- Fluorescence competitive binding assay, OBP2 (raw fluorescence reading) (SfurOBP2; ligand concentration 4 (unit not given), replicate column 2 of 3): 16711
- Fluorescence competitive binding assay, OBP2 (raw fluorescence reading) (SfurOBP2; ligand concentration 4 (unit not given), replicate column 3 of 3): 16317
- Fluorescence competitive binding assay, OBP2 (raw fluorescence reading) (SfurOBP2; ligand concentration 6 (unit not given), replicate column 1 of 3): 15662
- Fluorescence competitive binding assay, OBP2 (raw fluorescence reading) (SfurOBP2; ligand concentration 6 (unit not given), replicate column 2 of 3): 16983
- Fluorescence competitive binding assay, OBP2 (raw fluorescence reading) (SfurOBP2; ligand concentration 6 (unit not given), replicate column 3 of 3): 15070
- Fluorescence competitive binding assay, OBP2 (raw fluorescence reading) (SfurOBP2; ligand concentration 8 (unit not given), replicate column 1 of 3): 15947
- Fluorescence competitive binding assay, OBP2 (raw fluorescence reading) (SfurOBP2; ligand concentration 8 (unit not given), replicate column 2 of 3): 15853
- Fluorescence competitive binding assay, OBP2 (raw fluorescence reading) (SfurOBP2; ligand concentration 8 (unit not given), replicate column 3 of 3): 15572
- Fluorescence competitive binding assay, OBP2 (raw fluorescence reading) (SfurOBP2; ligand concentration 10 (unit not given), replicate column 1 of 3): 14398
- Fluorescence competitive binding assay, OBP2 (raw fluorescence reading) (SfurOBP2; ligand concentration 10 (unit not given), replicate column 2 of 3): 14630
- Fluorescence competitive binding assay, OBP2 (raw fluorescence reading) (SfurOBP2; ligand concentration 10 (unit not given), replicate column 3 of 3): 15652
- Fluorescence competitive binding assay, OBP2 (raw fluorescence reading) (SfurOBP2; ligand concentration 12 (unit not given), replicate column 1 of 3): 14856
- Fluorescence competitive binding assay, OBP2 (raw fluorescence reading) (SfurOBP2; ligand concentration 12 (unit not given), replicate column 2 of 3): 14795
- Fluorescence competitive binding assay, OBP2 (raw fluorescence reading) (SfurOBP2; ligand concentration 12 (unit not given), replicate column 3 of 3): 14083
- Fluorescence competitive binding assay, OBP2 (raw fluorescence reading) (SfurOBP2; ligand concentration 14 (unit not given), replicate column 1 of 3): 12632
- Fluorescence competitive binding assay, OBP2 (raw fluorescence reading) (SfurOBP2; ligand concentration 14 (unit not given), replicate column 2 of 3): 13317
- Fluorescence competitive binding assay, OBP2 (raw fluorescence reading) (SfurOBP2; ligand concentration 14 (unit not given), replicate column 3 of 3): 14001
- Fluorescence competitive binding assay, OBP2 (raw fluorescence reading) (SfurOBP2; ligand concentration 16 (unit not given), replicate column 1 of 3): 12208
- Fluorescence competitive binding assay, OBP2 (raw fluorescence reading) (SfurOBP2; ligand concentration 16 (unit not given), replicate column 2 of 3): 12493
- Fluorescence competitive binding assay, OBP2 (raw fluorescence reading) (SfurOBP2; ligand concentration 16 (unit not given), replicate column 3 of 3): 12411
- Fluorescence competitive binding assay, OBP2 (raw fluorescence reading) (SfurOBP2; ligand concentration 18 (unit not given), replicate column 1 of 3): 12799
- Fluorescence competitive binding assay, OBP2 (raw fluorescence reading) (SfurOBP2; ligand concentration 18 (unit not given), replicate column 2 of 3): 12350
- Fluorescence competitive binding assay, OBP2 (raw fluorescence reading) (SfurOBP2; ligand concentration 18 (unit not given), replicate column 3 of 3): 11202
- Fluorescence competitive binding assay, OBP2 (raw fluorescence reading) (SfurOBP2; ligand concentration 20 (unit not given), replicate column 1 of 3): 12923
- Fluorescence competitive binding assay, OBP2 (raw fluorescence reading) (SfurOBP2; ligand concentration 20 (unit not given), replicate column 2 of 3): 12557
- Fluorescence competitive binding assay, OBP2 (raw fluorescence reading) (SfurOBP2; ligand concentration 20 (unit not given), replicate column 3 of 3): 10378
- Fluorescence competitive binding assay, fluorescence intensity (SfurOBP1; ligand concentration 2 (μM)): 6030 and 6058 and 6096
- Fluorescence competitive binding assay, fluorescence intensity (SfurOBP1; ligand concentration 4 (μM)): 6092 and 6318 and 6150
- Fluorescence competitive binding assay, fluorescence intensity (SfurOBP1; ligand concentration 6 (μM)): 6520 and 6547 and 6496
- Fluorescence competitive binding assay, fluorescence intensity (SfurOBP1; ligand concentration 8 (μM)): 6548 and 6679 and 6600
- Fluorescence competitive binding assay, fluorescence intensity (SfurOBP1; ligand concentration 10 (μM)): 6739 and 6709 and 6666
- Fluorescence competitive binding assay, fluorescence intensity (SfurOBP1; ligand concentration 12 (μM)): 6775 and 6778 and 6802
- Fluorescence competitive binding assay, fluorescence intensity (SfurOBP1; ligand concentration 14 (μM)): 6847 and 6906 and 6978
- Fluorescence competitive binding assay, fluorescence intensity (SfurOBP1; ligand concentration 16 (μM)): 6943 and 7135 and 6900
- Fluorescence competitive binding assay, fluorescence intensity (SfurOBP1; ligand concentration 18 (μM)): 7439 and 7058 and 7176
- Fluorescence competitive binding assay, fluorescence intensity (SfurOBP1; ligand concentration 20 (μM)): 7203 and 7412 and 7729
